From patent US4395391A, “Unsymmetrically substituted dicarboxylic-acid-bis-(2,4,6-triiodo-anilides), their preparation, and x-ray contrast media containing same” (priority 1980, dated 1983)

Assays:
[1] = system: rat; assay: LD50, i.v., rat; assay type: in vivo; settings: meglumine salt solutions 180 mg iodine per ml, 0.8 ml/minute
Procedure: (1) The contrast media were injected in the form of meglumine salt
solutions of 180 mg of iodine per ml at a rate of 0.8 ml/minute into male

[2] = distribution coefficient butanol/water, pH 7.4; assay type: physicochemical; settings: meglumine salts
Text: By providing the compounds of this invention wherein only one of the two 5,5',-position hydrogen atoms is substituted, new contrast-producing substances are obtained. […] This can be shown by comparing the values of protein binding, compatibility, biliary and renal excretion of the meglumine salts of the conventional agent iodipamide (B) and an agent of this invention, hexane-diacid-1-(3-carboxy-2,4,6-triiodo-anilide)-6-(3-carboxy-5-N-methyl- carbamoyl-2,4,6-triido-anilide) (A).

[3] = system: rat; assay: ED50 rat, intracisternal; assay type: in vivo; settings: 200-250 g rat, diluted with 3% mannite solution
Procedure: (§1) least 4 doses were tested on 10 animals. The effectiveness criteria used
(§2) are the states of excitation, grave behavioral anomalies, coma and death
(§3) over the period of 24 h.
(3) With the test equipment essentially the same ss in (2), 200-250 g rat
are injected with contrast media in the cisterna suboccipitalis. The
contrast media were diluted with a 3% mannite solution to adjust the […]

[4] = system: rat; assay: ED50 rat, pericerebrally (excitation, grave behavioral anomalies, coma and death over 24 h); assay type: in vivo; settings: pericerebral (intracerebral) injection, 0.4 ml, rats about 100 g
Procedure: (2) Male and female rats of about 100 g in weight were injected
intracerebrally between the cheekbone and the occiputal bone through a
natural bone hole of the cranium while being slightly anesthesized with
ether. 0.4 ml injections of contrast media solutions of various
concentrations were used according to the method of Valzelli. The
injection was carried out with a Hamilton syringe 710 N for which the
penetration depth is limited to 10 mm. Depending on the preparation, at
as §1, §2, §3

[5] = system: dog liver; assay: computer tomography: maximum enrichment of contrast medium in dog liver; assay type: in vivo, dog (beagle); settings: 360 mg I/kg, intravenous, meglumine salt solutions 180 mg of I/ml, beagles
Text: The extraordinarily pronounced enrichment of the compounds of this invention is shown in Table 2 listing the maximal enrichment in the liver following intravenous administration of the meglumine salt solutions of the prior art iosefamic acid (D) and of a compound of this invention, 3-oxapentane-diacid-1-([…]-2,4,6-triiodo-N-methylanilide)-5-(3-carboxy-5-N-methylcarbamoyl-2,4,6-triiodo-anilide) (E).
The values were obtained from healthy male and female beagles (Schering, breeder) with weights of 9-14 kg. The meglumine salt solutions contained 180 mg of I/ml.
The investigation of the x-ray density of the liver before administration of the contrast media and every 5 minutes up to 90 minutes thereafter was carried out using a full-body scanner of the EMI CT 5005/12 type, which operates on the basis of the rotation-translation principle. The scanning time was 20 seconds, the tube voltage 120 kv. For an image matrix of 320×320 elements, the standard deviation from the mean value of a normalized water phantom was 1.6% (i.e., +/-8 EU=EMI units). The computer tomograms were analyzed always on the same liver area by means of the analyzer "IVC" of the EMI Co.

[6] = system: liver parenchyma; settings: cited from earlier work
[7] = system: liver parenchyma; settings: cited from earlier work; remark: listed apart in the source

Structure (SMILES)	LD50, i.v., rat [1]	distribution coefficient, butanol/water, pH 7.4 [2]	rat, intracisternal ED50 [3]	rat, pericerebrally ED50 [4]	Maximum enrichment in dog liver [5] [EMI units]	time of maximum enrichment in dog liver (min. p. appl.) [5] [min. p. appl.]	liver concentration for diagnosis improvement, dog [6]	liver concentration for diagnosis improvement, humans [7]
O=C(CCCCC(=O)Nc1c(I)cc(I)c(C(=O)O)c1I)Nc1c(I)cc(I)c(C(=O)O)c1I [B, iodipamide]	2.6 g of I/kg	0.278 +/- 0.008	1.07 (0.54-1.83) mg of I per kg	6.35 (5.11-7.44) mg of I/kg	–	–	–	–
CNC(=O)c1c(I)c(NC(=O)CCCCC(=O)Nc2c(I)cc(I)c(C(=O)O)c2I)c(I)c(C(=O)O)c1I [Compound A, Hexane-diacid-1-(3-carboxy-2,4,6-triiodo-anilide)-6-(3-carboxy-5-N-methylcarbamoyl-2,4,6-triiodo-anilide)]	5.5 g of I/kg	0.083 +/- 0.001	15.6 (11.5-21.1) mg of I per kg	17.1 (11.8-23.6) mg of I/kg	–	–	–	–
CNC(=O)c1c(I)c(NC(=O)CCCCCCCCC(=O)Nc2c(I)c(C(=O)O)c(I)c(C(=O)NC)c2I)c(I)c(C(=O)O)c1I [D, iosefamic acid]	–	–	–	–	22.8	80	still adequate liver concentration for diagnosis improvement in the dog	not in humans
CNC(=O)c1c(I)c(NC(=O)COCC(=O)N(C)c2c(I)cc(I)c(C(=O)O)c2I)c(I)c(C(=O)O)c1I [E, 3-oxapentane-diacid-1-(3-carboxy-2,4,6-triiodo-N-methylanilide)-5-(3-carboxy-5-N-methylcarbamoyl-2,4,6-triiodo-anilide)]	–	–	–	–	–	90	–	–
